The target of experiment [1] is Endothelial PAS domain-containing protein 1 (Homo sapiens) (UniProt Q99814). In words: HIF-2a and HIF-1a reporter inhibition panel, dose response, selectivity assay for HIF-2a inhibitor project, cell-based, luminescence (AID 651581).
Experiment [2] concerns the target Hypoxia-inducible factor 1-alpha (Homo sapiens) (UniProt Q16665). Described as above. As to conditions: HIF-1a.

Active and inactive are the calls of the source. The rule behind the calls is not given here. Bounds are passed on as bounds.

By IC50 is commonly meant the concentration at which inhibition is half-maximal.

Chain of Hypoxia-inducible factor 1-alpha (Homo sapiens) (Q16665 whole entry, looked up): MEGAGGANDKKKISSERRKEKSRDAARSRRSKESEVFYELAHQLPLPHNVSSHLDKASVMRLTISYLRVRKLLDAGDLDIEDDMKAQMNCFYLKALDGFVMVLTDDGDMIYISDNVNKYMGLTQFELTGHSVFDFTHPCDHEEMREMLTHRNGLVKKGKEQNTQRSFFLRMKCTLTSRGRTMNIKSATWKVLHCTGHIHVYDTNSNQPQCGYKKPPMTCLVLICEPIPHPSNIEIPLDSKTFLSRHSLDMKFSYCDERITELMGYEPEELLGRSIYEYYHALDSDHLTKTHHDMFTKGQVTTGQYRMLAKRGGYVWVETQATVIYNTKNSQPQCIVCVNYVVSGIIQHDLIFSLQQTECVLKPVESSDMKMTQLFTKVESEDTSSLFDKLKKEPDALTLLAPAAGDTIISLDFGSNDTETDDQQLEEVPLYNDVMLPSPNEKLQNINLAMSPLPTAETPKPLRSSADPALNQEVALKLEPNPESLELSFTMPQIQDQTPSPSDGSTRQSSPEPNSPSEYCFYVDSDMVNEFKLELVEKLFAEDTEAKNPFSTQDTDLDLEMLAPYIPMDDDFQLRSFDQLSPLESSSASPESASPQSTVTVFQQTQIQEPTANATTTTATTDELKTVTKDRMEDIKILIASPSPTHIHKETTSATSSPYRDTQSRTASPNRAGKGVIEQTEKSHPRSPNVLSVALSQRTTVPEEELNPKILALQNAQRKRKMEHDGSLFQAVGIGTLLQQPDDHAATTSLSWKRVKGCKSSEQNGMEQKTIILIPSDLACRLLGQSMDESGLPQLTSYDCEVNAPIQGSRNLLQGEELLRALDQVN

In the case of `COc1ccc(CNC(=O)CCc2c(C)nc3cc(-c4ccccc4OC)nn3c2C)cc1`, the half-maximal inhibitory concentration (IC50) in experiment [1] (HIF-2a PANC, run 1) is above 99 µM; in experiment [1] (HIF-2a PANC, run 2) it was 11.8 µM; in experiment [1] (HIF-2a, mean of runs), 9.3 µM; in experiment [1] (HIF-2a, run 1) it was 10.1 µM; in experiment [1] (HIF-2a, run 2), 8.49 µM; in experiment [2] (run 1), 26.8 µM. Also, in experiment [2] (run 2), the IC50 amounted to 6.7 µM. Besides, the IC50 entry in experiment [2] (mean of runs) is “inactive”.
In the case of `C(=NNc1ccc2ccccc2n1)c1ccccn1`, the IC50 entry in experiment [1] (HIF-2a PANC, mean of runs) is “inactive”. Moreover, the IC50 in experiment [1] (HIF-2a PANC, run 1) is 44.8 µM; in experiment [1] (HIF-2a PANC, run 2), 51.1 µM; in experiment [1] (HIF-2a, mean of runs), 5.57 µM; in experiment [1] (HIF-2a, run 1), 5.49 µM; in experiment [1] (HIF-2a, run 2) it was 5.65 µM; in experiment [2] (mean of runs) it was 23.5 µM. Besides, the results for the half-maximal inhibitory concentration (IC50) in experiment [2] (run 1) and in experiment [2] (run 2) were 22 µM and 24.9 µM, respectively.
For the molecule `Cc1c(CCC(=O)N2CCC(C(=O)O)(c3ccccc3)CC2)c(=O)oc2cc3oc4c(c3cc12)CCCC4`, the IC50 in experiment [1] (HIF-2a PANC, mean of runs) is 3.13 µM; in experiment [1] (HIF-2a PANC, run 1) it was 3.77 µM; in experiment [1] (HIF-2a PANC, run 2), 2.49 µM; in experiment [1] (HIF-2a, mean of runs) it was 1.41 µM; in experiment [1] (HIF-2a, run 1) it was 1.57 µM; in experiment [1] (HIF-2a, run 2), 1.24 µM. In addition, the IC50 in experiment [2] (mean of runs) was 5.97 µM; in experiment [2] (run 1), 7.31 µM; in experiment [2] (run 2), 4.63 µM.
Take `CCOC(=O)c1cc(-c2csc(-c3ccc(C(C)(C)C)cc3)n2)on1`: the IC50 is > 99 µM (inactive) in experiment [1] (HIF-2a PANC, mean of runs); above 99 µM in experiment [1] (HIF-2a PANC, run 1); above 99 µM in experiment [1] (HIF-2a PANC, run 2); 4.82 µM in experiment [1] (HIF-2a, mean of runs); 4.83 µM in experiment [1] (HIF-2a, run 1); 4.81 µM in experiment [1] (HIF-2a, run 2). For the same molecule, the figures for the IC50 in experiment [2] (mean of runs), in experiment [2] (run 1) and in experiment [2] (run 2) were 55.7 µM, 68.5 µM and 42.9 µM, respectively.
For the molecule `CC(C)(C)c1ccc(-c2noc(CCC(N)=O)n2)cc1`, the 50% inhibitory concentration (IC50) in experiment [1] (HIF-2a PANC, mean of runs) is below 0.3 µM; in experiment [1] (HIF-2a PANC, run 1), below 1 µM; in experiment [1] (HIF-2a PANC, run 2), below 0.3 µM; in experiment [1] (HIF-2a, mean of runs), below 0.3 µM; in experiment [1] (HIF-2a, run 1) it was below 0.3 µM; in experiment [1] (HIF-2a, run 2), below 0.3 µM. Moreover, the IC50 in experiment [2] (run 1) and in experiment [2] (run 2) was above 99 µM each time.
Take `Cc1ccc(-n2nc3ccc(N)cc3n2)c(C)c1`: the IC50 entry in experiment [1] (HIF-2a PANC, mean of runs) is “inactive”. The IC50 in experiment [1] (HIF-2a PANC, run 1) is 1.69 µM; in experiment [1] (HIF-2a PANC, run 2), 3.51 µM; in experiment [1] (HIF-2a, mean of runs), 0.452 µM; in experiment [1] (HIF-2a, run 1), 0.456 µM; in experiment [1] (HIF-2a, run 2) it was 0.448 µM; in experiment [2] (run 1), above 99 µM. The IC50 in experiment [2] (run 2) is above 99 µM.
For the molecule `CCOC(=O)C1CCN(C(=O)CCc2c(C)nc3cc(-c4ccccc4)nn3c2C)CC1`, the IC50 in experiment [1] (HIF-2a PANC, mean of runs) was 2.16 µM; in experiment [1] (HIF-2a PANC, run 1), 1.83 µM; in experiment [1] (HIF-2a PANC, run 2), 2.48 µM; in experiment [1] (HIF-2a, mean of runs), 1.39 µM; in experiment [1] (HIF-2a, run 1), 1.51 µM; in experiment [1] (HIF-2a, run 2), 1.27 µM. Besides, the concentration for half-maximal inhibition (IC50) is 9.79 µM in experiment [2] (mean of runs), 12.6 µM in experiment [2] (run 1) and 6.98 µM in experiment [2] (run 2).
For `CN(C)c1c([N+](=O)[O-])cc(N2C(=O)C=CC2=O)cc1[N+](=O)[O-]`, in experiment [1] (HIF-2a PANC, mean of runs), the IC50 result is “inactive”. The IC50 in experiment [1] (HIF-2a PANC, run 1) is 22.2 µM; in experiment [1] (HIF-2a PANC, run 2), 41.7 µM; in experiment [1] (HIF-2a, mean of runs), 8.6 µM; in experiment [1] (HIF-2a, run 1) it was 8.29 µM; in experiment [1] (HIF-2a, run 2), 8.9 µM; in experiment [2] (mean of runs), 52.2 µM. The IC50 in experiment [2] (run 1) was 63.9 µM; in experiment [2] (run 2), 40.5 µM.
For `CC(C)c1ccc(/C=N/Nc2ccc(C(=O)O)cc2)cc1`, the IC50 was below 1 µM in experiment [1] (HIF-2a PANC, mean of runs); below 3 µM in experiment [1] (HIF-2a PANC, run 1); below 1 µM in experiment [1] (HIF-2a PANC, run 2); 7.97 µM in experiment [1] (HIF-2a, run 1); below 0.19 µM in experiment [1] (HIF-2a, run 2); 24.8 µM in experiment [2] (mean of runs). The IC50 came out at 28 µM in experiment [2] (run 1) and 21.7 µM in experiment [2] (run 2).
With `O=C(O)c1cccc(C(=O)Nc2cccc(NC(=O)C3CCCO3)c2)c1` (stereo not drawn), the IC50 is > 99 µM (inactive) in experiment [1] (HIF-2a PANC, mean of runs); above 99 µM in experiment [1] (HIF-2a PANC, run 1); above 99 µM in experiment [1] (HIF-2a PANC, run 2); 30.8 µM in experiment [1] (HIF-2a, run 1); 26.9 µM in experiment [1] (HIF-2a, run 2); above 99 µM in experiment [2] (run 1). Moreover, in experiment [2] (run 2), the IC50 was above 99 µM. In experiment [1] (HIF-2a, mean of runs), the IC50 entry was “inactive”.
`COC(=O)COc1ccc(-c2nccc(-c3ccc(Br)cc3)n2)cc1`: the IC50 is 6.31 µM in experiment [1] (HIF-2a PANC, run 1); above 99 µM in experiment [1] (HIF-2a PANC, run 2); 7.51 µM in experiment [1] (HIF-2a, mean of runs); 7.55 µM in experiment [1] (HIF-2a, run 1); 7.47 µM in experiment [1] (HIF-2a, run 2); above 99 µM in experiment [2] (run 1). This molecule showed an IC50 in experiment [2] (run 2) above 99 µM.
With `CCOC(=O)CNC(=O)CSc1nnc(NC(=O)c2ccc(C)cc2)s1`, the IC50 result in experiment [1] (HIF-2a PANC, mean of runs) is “inactive”. The IC50 in experiment [1] (HIF-2a PANC, run 1) is 63.2 µM; in experiment [1] (HIF-2a PANC, run 2), 25.5 µM; in experiment [1] (HIF-2a, mean of runs), 9.66 µM; in experiment [1] (HIF-2a, run 1) it was 11.8 µM; in experiment [1] (HIF-2a, run 2), 7.56 µM; in experiment [2] (run 1), above 99 µM. This molecule registered an IC50 in experiment [2] (run 2) above 99 µM.
In the case of `C=C1C(=O)OC2CC3(C)OC3C3OC3C3=CC(OC3=O)C12` (stereo not drawn), the IC50 in experiment [1] (HIF-2a PANC, run 1) was above 99 µM; in experiment [1] (HIF-2a PANC, run 2) it was 59.7 µM; in experiment [1] (HIF-2a, run 1), 11.4 µM; in experiment [1] (HIF-2a, run 2) it was 10.3 µM; in experiment [2] (mean of runs), 36.4 µM; in experiment [2] (run 1), 33.9 µM. Also, the IC50 in experiment [2] (run 2) turned out to be 38.9 µM. Further, the IC50 entry in experiment [1] (HIF-2a, mean of runs) is “inactive”.
